For 14 compounds, TGI results are on record in PubChem BioAssay (NCI).

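Tested at 5 concentrations; 48 h exposure; 96-well plates; endpoints linearly interpolated, else capped at highest concentration. TGI: total growth inhibition.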

Test systems include CCRF-CEM leukemia; HCC-2998 colon; HOP-62 NSCLC; HS 578T breast; KM12 colon; M14 melanoma; MALME-3M melanoma; MCF7 breast; NCI-H460 lung; SK-MEL-28 melanoma; SK-MEL-5 melanoma; T-47D breast; TK-10 renal; UACC-257 melanoma; UACC-62 melanoma; UO-31 renal.
Experiment in all cases: inhibition of tumour cell growth, NCI panel, 48 h

Take `CNC(=O)CCCN(C)C(=O)CCCCC(=O)N(C)C`: the TGI in the test on CCRF-CEM leukemia, in the test on HCC-2998 colon, in the test on HOP-62 NSCLC, in the test with HS 578T breast, with KM12 colon and in the test with M14 melanoma was > 100 µM in each case. For the same compound, the TGI in the test on MALME-3M melanoma, in the test with MCF7 breast, in the test on NCI-H460 lung, in the test on SK-MEL-28 melanoma, in the test with SK-MEL-5 melanoma and in the test on T-47D breast was > 100 µM in each case. The TGI in the test with TK-10 renal, with UACC-257 melanoma, in the test on UACC-62 melanoma and with UO-31 renal was > 100 µM each time.

Take `O=C(CCCl)NNC1=NCCN1`: the TGI with CCRF-CEM leukemia, with HCC-2998 colon, with HOP-62 NSCLC, in the test with HS 578T breast, in the test with KM12 colon and with M14 melanoma was > 100 µM in each case. Further, the TGI with MALME-3M melanoma, with MCF7 breast, with NCI-H460 lung, in the test with SK-MEL-28 melanoma, with SK-MEL-5 melanoma and in the test on T-47D breast was > 100 µM each time. Moreover, the TGI with TK-10 renal, in the test on UACC-257 melanoma, in the test with UACC-62 melanoma and with UO-31 renal was > 100 µM each time.

For the compound `O=C1C=C(NCCc2cc(Br)c(O)c(Br)c2)C(=O)c2ncccc21`, the TGI was found to be 31.4 µM in the test with CCRF-CEM leukemia; 18.5 µM with HCC-2998 colon; 3.59 µM with HOP-62 NSCLC; 8.77 µM with HS 578T breast; 23.4 µM with KM12 colon; 2.7 µM in the test on M14 melanoma. Moreover, the TGI turned out to be 2.49 µM with MALME-3M melanoma; 5.29 µM with MCF7 breast; 4.8 µM with NCI-H460 lung; 3.5 µM in the test with SK-MEL-28 melanoma; 2.57 µM in the test with SK-MEL-5 melanoma; 43.4 µM in the test with T-47D breast. Further, the TGI stood at 13.8 µM with TK-10 renal, 2.92 µM in the test with UACC-257 melanoma, 2.93 µM with UACC-62 melanoma and 20.2 µM in the test on UO-31 renal.

Regarding `CC1(C)CN=C(Nc2cccc(C(F)(F)F)c2)S1`, the TGI in the test on CCRF-CEM leukemia, in the test with HCC-2998 colon, in the test with HOP-62 NSCLC, with HS 578T breast, in the test with KM12 colon and in the test with M14 melanoma was > 100 µM throughout. The TGI in the test with MALME-3M melanoma, in the test with MCF7 breast, with SK-MEL-28 melanoma, in the test on SK-MEL-5 melanoma, in the test with T-47D breast and in the test with TK-10 renal was > 100 µM in each case. Besides, the TGI in the test with UACC-257 melanoma, in the test with UACC-62 melanoma and in the test with UO-31 renal was > 100 µM throughout.

As for `COc1ccccc1Cn1nc(OC)c2cc([N+](=O)[O-])ccc21`, the TGI with CCRF-CEM leukemia was > 100 µM; with HCC-2998 colon, > 100 µM; in the test on HOP-62 NSCLC, 20.3 µM; in the test on HS 578T breast, > 84.7 µM; with KM12 colon, > 100 µM; with M14 melanoma it was > 100 µM. Moreover, the TGI in the test on MALME-3M melanoma, with MCF7 breast, in the test on NCI-H460 lung, with SK-MEL-28 melanoma, in the test on SK-MEL-5 melanoma and in the test with T-47D breast was > 100 µM each time. Besides, the TGI is 60.8 µM with TK-10 renal, > 100 µM with UACC-257 melanoma and > 79.6 µM in the test on UO-31 renal.

On to `N/N=C1/CCCc2nonc21`, for which the TGI with CCRF-CEM leukemia, in the test with HCC-2998 colon, in the test with HOP-62 NSCLC, in the test on HS 578T breast, in the test on KM12 colon and in the test on M14 melanoma was > 100 µM in each case. In addition, the TGI in the test with MALME-3M melanoma, in the test on MCF7 breast, in the test on NCI-H460 lung, in the test with SK-MEL-28 melanoma, with SK-MEL-5 melanoma and in the test on T-47D breast was > 100 µM each time. In addition, the TGI in the test on TK-10 renal, in the test on UACC-257 melanoma and with UACC-62 melanoma was > 100 µM in each case.

`O=C(CCc1cccc(O)c1)NCCc1ccc(O)cc1`: the TGI in the test on CCRF-CEM leukemia, in the test on HOP-62 NSCLC, in the test on HS 578T breast, in the test with KM12 colon, in the test with M14 melanoma and with MALME-3M melanoma was > 100 µM throughout. The TGI in the test on MCF7 breast, in the test on NCI-H460 lung, in the test with SK-MEL-28 melanoma, in the test with SK-MEL-5 melanoma, in the test with T-47D breast and in the test on TK-10 renal was > 100 µM each time. For the same compound, the TGI in the test with UACC-257 melanoma, in the test with UACC-62 melanoma and in the test with UO-31 renal was > 100 µM each time.

`CN(/N=C/C=N/N(C)C1=NCCCCN1)C1=NCCCCN1`: the TGI in the test on CCRF-CEM leukemia, in the test on HCC-2998 colon, in the test with HOP-62 NSCLC, in the test on HS 578T breast, in the test on M14 melanoma and with MALME-3M melanoma was > 100 µM each time. The TGI in the test with MCF7 breast, in the test on NCI-H460 lung, in the test on SK-MEL-28 melanoma, with SK-MEL-5 melanoma, in the test with T-47D breast and with TK-10 renal was > 100 µM in each case. The TGI in the test with UACC-257 melanoma, in the test on UACC-62 melanoma and in the test with UO-31 renal was > 100 µM throughout.

Regarding `ClC1=C(Cc2ccccc2)Cc2ccc3c(c21)CCC3`, the TGI was 90.1 µM in the test on CCRF-CEM leukemia; 40.1 µM with HCC-2998 colon; > 100 µM in the test on HOP-62 NSCLC; 84.3 µM in the test on HS 578T breast; 39.2 µM in the test with KM12 colon; > 100 µM in the test with M14 melanoma. For the same compound, the TGI in the test with MALME-3M melanoma was 59.7 µM; in the test with MCF7 breast it was 37.7 µM; with SK-MEL-28 melanoma, > 100 µM; in the test with SK-MEL-5 melanoma, 40.6 µM; in the test on T-47D breast it was 50.4 µM; with TK-10 renal, > 100 µM. Besides, the TGI with UACC-257 melanoma worked out at 53.8 µM; with UACC-62 melanoma it was 60.3 µM; in the test with UO-31 renal, 69.6 µM.

With `N#CC1=C(N)OC(c2ccc([N+](=O)[O-])cc2)C1(C#N)C#N` (stereo not drawn), the TGI in the test on CCRF-CEM leukemia is 43.3 µM; with HCC-2998 colon it was 23.5 µM; in the test on HOP-62 NSCLC, > 53 µM; in the test on HS 578T breast it was 64.9 µM; in the test on KM12 colon, > 48.4 µM; in the test with M14 melanoma, 38.9 µM. Moreover, the TGI worked out at 24.1 µM with MALME-3M melanoma; 42.4 µM in the test on MCF7 breast; 26.9 µM in the test on SK-MEL-28 melanoma; 31.9 µM in the test with SK-MEL-5 melanoma; 43.2 µM in the test with T-47D breast; 26.7 µM in the test on TK-10 renal. Moreover, the results for the TGI in the test with UACC-257 melanoma, in the test with UACC-62 melanoma and in the test on UO-31 renal were 26.5 µM, 24.3 µM and 11.5 µM, respectively.

For `O=c1[nH]nc(Cc2ccc(Cl)cc2)n1/N=C\c1ccc(/C=N/n2c(Cc3ccc(Cl)cc3)n[nH]c2=O)cc1`, the TGI was > 100 µM with CCRF-CEM leukemia; 57.5 µM with HOP-62 NSCLC; > 100 µM in the test with HS 578T breast; > 100 µM in the test with KM12 colon; > 100 µM with M14 melanoma; > 100 µM in the test with MALME-3M melanoma. The TGI in the test with MCF7 breast, in the test on NCI-H460 lung, in the test on SK-MEL-28 melanoma, in the test with SK-MEL-5 melanoma, with T-47D breast and in the test with TK-10 renal was > 100 µM each time. Further, the TGI in the test on UACC-257 melanoma, in the test on UACC-62 melanoma and with UO-31 renal was > 100 µM throughout.

On to `Cc1cc(C)c2c(=O)n(CN3CCC(O)(c4ccccc4)CC3)sc2n1`, for which the TGI with CCRF-CEM leukemia is > 100 µM; in the test with HCC-2998 colon, 57.3 µM; with HOP-62 NSCLC it was > 100 µM; in the test on HS 578T breast, > 100 µM; in the test with KM12 colon it was > 100 µM; in the test on M14 melanoma, > 100 µM. For the same compound, the TGI was 32.9 µM with MALME-3M melanoma; > 100 µM in the test with MCF7 breast; 95.3 µM in the test on NCI-H460 lung; > 100 µM in the test with SK-MEL-28 melanoma; > 100 µM with SK-MEL-5 melanoma; > 100 µM in the test on T-47D breast. Also, the TGI was 29.8 µM in the test with TK-10 renal, > 100 µM with UACC-62 melanoma and 33.8 µM in the test with UO-31 renal.

On to `CN(C1=NCCO1)c1cccc2c1CCCC2`, for which the TGI is 8.06 µM in the test on CCRF-CEM leukemia; > 10 µM in the test on HCC-2998 colon; > 10 µM with HOP-62 NSCLC; > 10 µM in the test with HS 578T breast; > 10 µM with KM12 colon; 6.09 µM in the test on M14 melanoma. For the same compound, the TGI in the test on MALME-3M melanoma is 9.3 µM; with MCF7 breast it was > 10 µM; in the test with NCI-H460 lung, > 10 µM; in the test with SK-MEL-28 melanoma, > 10 µM; in the test on SK-MEL-5 melanoma, 4.84 µM; in the test with T-47D breast, > 10 µM. Besides, the TGI in the test with TK-10 renal, in the test on UACC-257 melanoma and in the test on UACC-62 melanoma was > 10 µM each time.

For the compound `N#CCCN(CCC#N)c1ccc(/C=C2\N=C(c3ccccc3)N(c3ccccn3)C2=O)cc1`, the TGI with CCRF-CEM leukemia, in the test with HOP-62 NSCLC, in the test with HS 578T breast, in the test on KM12 colon, in the test on M14 melanoma and with MALME-3M melanoma was > 100 µM throughout. Also, the TGI in the test on MCF7 breast, in the test on NCI-H460 lung, in the test on SK-MEL-28 melanoma, in the test with SK-MEL-5 melanoma, in the test on T-47D breast and in the test with TK-10 renal was > 100 µM each time. Besides, the TGI in the test on UACC-257 melanoma, in the test with UACC-62 melanoma and in the test with UO-31 renal was > 100 µM in each case.
